Source: patent US11982667B2, “Platelet aggregation capacity analyzer, analysis method, and analysis system using complex dielectric permittivity” (SONY CORPORATION, priority 2018, dated 2024)

What was measured:
[1] = single oral administration of 200 mg; cited from earlier work
[2] = system: platelets in whole blood (ADP pathway); experiment: DBCM platelet assay (ADP pathway), activation residual rate AR3 by Method 3; assay type: cell-based, human; settings: citrated whole blood of healthy volunteers spiked with ticagrelor; final blood concentration 400 nM and above; ADP 13 μM; DCS74 feature value
Procedure: In this experiment, the operating sequence of the dielectric coagulation analyzer experimental machine developed for dielectric blood coagulometry (also simply herein referred to as “DBCM”) was used with some modifications to realize a platelet assay.
When the measurement is started, 200 μL of citric acid-added blood sample is dispensed into a disposable cartridge into which a reagent(s) has been introduced in advance, and the mixture is mixed and stirred by automatic pipetting with a suction volume of about 200 μL. […]
Immediately after the completion of stirring, the dielectric permittivity measurement was started, and a change in the blood dielectric permittivity associated with blood coagulation was recorded at a measurement frequency of from 10 kHz to 10 MHz, a measurement time of 60 min, and a measurement time interval of 5 sec. […]
Meanwhile, in Methods 1 and 2, the response upper limit was obtained when the measurement was conducted without adding any agonist experimentally. […] In this regard, however, the ideal measured value should be obtained when 215 mM lyophilized calcium chloride reagent without any agonist is used and the number of stirring operations is changed to 5 times which is the minimum so as to prevent some of the platelets from being activated and reacted due to stirring-induced shear stress. […]

SMILES: CCCSc1nc(N[C@@H]2C[C@H]2c2ccc(F)c(F)c2)c2nnn([C@@H]3C[C@H](OCCO)[C@@H](O)[C@H]3O)c2n1 [ticagrelor]
- maximum plasma concentration [1]: 923 ng/mL
- platelet activation residual rate AR3 (%) [2]: ≤ 30%
